Drawing on a melting point compilation (Tetko et al.; mined from patent text by program, amines drawn as free bases though some values may be those of a salt), this text covers melting point for 33 compounds.

Each structure is given as a SMILES string.

Broadly, the melting point is the temperature, or range, at which the solid turns liquid. `CCN(CC)C(=O)c1ccc(I)cc1` returned a melting point of 68 to 70 °C. In the case of `Cc1[nH]cnc1CSCCNc1ncc(Cc2ccn(C)c(=O)c2)c(=O)[nH]1`, the melting point fell in the range of 202 to 204 °C. For `BrC(Br)c1nccnc1C(Br)Br`, the melting point was 167 to 170 °C. `Cc1ccc(C=NNc2ccc(S(N)(=O)=O)cc2)cc1` had a melting point of 216 to 218 °C. On to `NC(=O)N1C(=O)C(C(=O)c2cc(Cl)cs2)c2cc(C(F)(F)F)ccc21` (stereo not drawn), for which the melting point was 164 to 166 °C. `CCN(CC)c1ccc2nc3c4ccccc4c(=Nc4cccnc4)cc-3oc2c1` displayed a melting point of 198 to 199 °C. As to `Cc1cc(-c2cccc(NC(=O)N[C@@H]3c4cc(C#N)ccc4OC(C)(C)[C@H]3O)c2)nn1C`, the melting point was in the range of 120 to 130 °C. The value for `CC(C)C(=O)C(O)(Cc1ccc(Cl)cc1Cl)c1cccnc1` (stereo not drawn) was 144 to 145 °C. `CC(C)(C)OC(=O)Nc1c(C#CBr)c(C#N)nn1-c1c(Cl)cc(C(F)(F)F)cc1Cl`: the melting point fell in the range of 168 to 170 °C. `Cc1cccc(-c2nc(N)sc2-c2ccc(F)c(-c3ccc(S(C)(=O)=O)cc3)c2)n1` had a melting point of 202 to 204 °C.

Turning to `O=[N+]([O-])c1cc(OCC2=CCCSC2)c(Cl)cc1F`, the melting point lay in the range of 91 to 94 °C.

For `CCC(C(C)C)C(OC(C)=O)C(OC(C)=O)C(C)C1CCC2C3CC(=O)C4CC=CCC4(C)C3CCC12C` (stereo not drawn), the melting point fell in the range of 116 to 118 °C. `COc1cccc(C2(c3cccc(OC)c3)CC2C=CC(=O)NC(C)CCCc2cccnc2)c1` (single isomer, unassigned) had a melting point of 104 to 106 °C. With `CN1C[C@H](CN2CCC(O)(c3ccc(Cl)cc3)CC2)C=C2c3cccc4c3c(cn4C)C[C@H]21`, the melting point was in the range of 101 to 107 °C. As for `COc1cc(C(=O)c2csc(-c3ccncc3)n2)cc(OC)c1OC`, the melting point was in the range of 178 to 180 °C. Compound `CNC(=S)SCCC(=O)N1CCC[C@H]1C(=O)O` displayed a melting point of 127 to 129 °C. `CCC1(CC)CC(c2ccc(F)cc2)=C(c2ccc(S(N)(=O)=O)cc2)C1` yielded a melting point of 101 °C. As to `CN1C(=O)C2(COc3cc4c(cc32)OCCO4)c2c(Oc3ccc(F)cc3)cccc21` (stereo not drawn), the melting point is 151 to 153 °C.

On to `CC(O)(c1ccccc1)c1ccncc1` (stereo not drawn), for which the melting point was in the range of 141 to 144 °C.

In turn, `COc1cc(C=C(C(=O)O)c2ccc(O)cc2)cc(OC)c1` showed a melting point of 135 to 137 °C. Consider `Nc1ccc(O)c(-c2cccs2)c1`, for which the melting point lay in the range of 130 to 132 °C. In turn, `CC(=O)ON=C(N)c1cccc(C(=O)N2CCN(C(=O)[C@@H]3CCCN3S(=O)(=O)c3ccc(Cl)c(COc4cccc5c(C)cc(C)nc45)c3Cl)CC2)c1` returned a melting point of 130 °C.

For `Cc1ccccc1C(=O)CN1C(=O)C(NC(=O)Nc2cccc(CC(O)=S)c2)CN(C(=O)C(C)(C)C)c2ccccc21` (stereo not drawn), the melting point was in the range of 127 to 130 °C. In the case of `Cc1c(F)cccc1Cc1c(-c2ccccc2)c2ccccn2c1C(=O)N1CCN(C(=O)OC(C)(C)C)[C@@H](CCO[Si](C)(C)C(C)(C)C)C1`, the melting point turned out to be 70 °C.

`COc1cc(OC)cc(N2CCN(CCC3CN(C)C(=O)O3)CC2)c1` (stereo not drawn) yielded a melting point of 85 to 87 °C. The result for `Cn1nc2c(N)nc3ccccc3c2c1CCCCCl` reads 188 to 189 °C; that for `Cc1nc2ccc3c(c2o1)C(O)(CC#N)C(C(C)C)C3` (stereo not drawn), 149 to 152 °C.

In turn, `COc1cc(OS(=O)(=O)c2ccc(N3CCN(C)C3=O)cc2)cc(OC)c1OC` came in with a melting point of 160 to 162 °C. `COc1ccc(-c2c(Cl)c(CN3C(=O)COC3=O)nc3sc4c(c23)CCC(C(=O)O)C4)cc1` (stereo not drawn) had a melting point of 218 to 219 °C. The value for `CC(COc1ccc(CC2SC(=O)NC2=O)cc1)C1CC(COc2ccccc2)OC1=S` (stereo not drawn) was 53 to 58 °C; that for `[N-]=[N+]=NS(=O)(=O)c1ccc(C(=O)Cl)cc1` was 68 °C.

In the case of `CNC(=O)c1ccc(Nc2nc(OCC3CCCCC3)c3nc[nH]c3n2)cc1`, the melting point lay in the range of 139 to 142 °C.

Take `CCC(NC(=O)C(F)F)c1ccc(Cl)c2nc3n(c12)CCCN3c1ccc(Cl)cc1Cl` (stereo not drawn): the melting point lay in the range of 248 to 250 °C.
